What was measured:
Assay in all cases: relative viability (nuclei count vs DMSO), 5 days (fraction); higher = more cells survive
Doxorubicin + Phenformin = compound: COc1cccc2c1C(=O)c1c(O)c3c(c(O)c1C2=O)C[C@@](O)(C(=O)CO)C[C@@H]3O[C@H]1C[C@H](N)[C@H](O)[C@H](C)O1 [Doxorubicin] + N=C(N)NC(=N)NCCc1ccccc1 [Phenformin] (partner 250 µM)
Summary of the method: (§1)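 A single step with final 0.05% Triton X-100, 1% formaldehyde and 1 ug/ml Hoechst fixed the cells and stained nuclei 5 days after treatment. Lung cancer cell lines in 1536-well plates had been treated by pin tool the day after seeding with one drug alone or a fixed anchor-drug dose plus five library-drug doses (not always all listed) in √10 steps, and nuclei were counted on 4× images. Relative viability is the ratio of nuclei in treated wells to nuclei in vehicle wells, taken as the median of duplicate plates.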

Doxorubicin = compound: COc1cccc2c1C(=O)c1c(O)c3c(c(O)c1C2=O)C[C@@](O)(C(=O)CO)C[C@@H]3O[C@H]1C[C@H](N)[C@H](O)[C@H](C)O1 [Doxorubicin]
Summary of the method: (§2)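 For viability, nuclei in each treated well were divided by nuclei in vehicle wells and the median across plates was taken. Lung cancer cell lines in 1536-well plates were pinned with five library-drug doses (not always all listed) spaced by √10, cultured 5 days without medium change, and imaged at 4× after Hoechst staining, with plates passing only at control CV below 25% and at least one doubling.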

BAY61-3606 = compound: COC1=C(C=C(C=C1)C2=CC3=NC=CN3C(=N2)NC4=C(C=CC=N4)C(=O)N)OC [BAY61-3606]
Summary of the method: as §2

BAY61-3606 + Navitoclax = compound: COC1=C(C=C(C=C1)C2=CC3=NC=CN3C(=N2)NC4=C(C=CC=N4)C(=O)N)OC [BAY61-3606] + CC1(C)CCC(c2ccc(Cl)cc2)=C(CN2CCN(c3ccc(C(=O)NS(=O)(=O)c4ccc(N[C@H](CCN5CCOCC5)CSc5ccccc5)c(S(=O)(=O)C(F)(F)F)c4)cc3)CC2)C1 [Navitoclax] (partner 0.5 µM)
Summary of the method: as §1

Cell Line	relative viability (Doxorubicin + Phenformin; first compound 0.001 µM)	relative viability (Doxorubicin + Phenformin; first compound 0.003162 µM)	relative viability (Doxorubicin + Phenformin; first compound 0.01 µM)	relative viability (Doxorubicin + Phenformin; first compound 0.03162 µM)	relative viability (Doxorubicin + Phenformin; first compound 0.1 µM)	relative viability (Doxorubicin; 0.001 µM)	relative viability (Doxorubicin; 0.003162 µM)	relative viability (Doxorubicin; 0.01 µM)	relative viability (Doxorubicin; 0.03162 µM)	relative viability (Doxorubicin; 0.1 µM)	relative viability (BAY61-3606; 0.02 µM)	relative viability (BAY61-3606; 0.06325 µM)	relative viability (BAY61-3606; 0.2 µM)	relative viability (BAY61-3606; 0.6325 µM)	relative viability (BAY61-3606; 2 µM)	relative viability (BAY61-3606 + Navitoclax; first compound 0.02 µM)	relative viability (BAY61-3606 + Navitoclax; first compound 0.06325 µM)	relative viability (BAY61-3606 + Navitoclax; first compound 0.2 µM)	relative viability (BAY61-3606 + Navitoclax; first compound 0.6325 µM)	relative viability (BAY61-3606 + Navitoclax; first compound 2 µM)
NCI-H2342	0.638	0.54	0.527	0.552	0.553	0.938	1.03	0.929	0.763	0.877	0.966	1.02	0.908	0.966	1.15	–	–	–	–	–
HCC-15	–	0.518	0.355	0.148	0.135	0.807	1.08	0.975	0.811	0.654	1	0.971	0.994	0.988	0.896	0.796	0.703	0.691	0.702	0.683
A-427	0.263	0.337	0.292	0.337	0.33	0.969	1.03	0.936	0.81	0.757	1.08	1.01	0.963	1.03	0.892	1.03	0.983	0.962	1.06	0.914
NCI-H2347	0.434	0.513	0.428	0.374	0.273	0.992	1.08	0.945	0.945	0.838	1.03	1.05	1.04	1	1.05	0.802	0.789	0.859	0.936	0.754
NCI-H1755	0.612	0.642	0.618	0.675	0.626	0.999	0.979	1	1.03	1.02	1.05	1	0.995	1.05	0.988	1.03	1.02	0.993	1.06	0.782
SK-LU-1	0.367	0.558	0.449	0.226	0.173	1	1.05	0.987	0.798	0.654	1.08	1.04	1.04	1.06	0.694	1.19	0.836	0.695	0.812	0.55
NCI-H1975	0.397	0.422	0.383	0.219	0.179	1.02	0.985	0.951	0.778	0.518	0.958	0.964	0.913	0.874	0.668	1.16	0.937	1.02	1.04	0.72
NCI-H1703	–	–	–	–	–	0.857	0.936	0.812	0.4	0.351	1.16	0.789	0.77	0.919	0.558	1.47	0.859	0.954	1.08	0.475
HCC-44	0.207	0.244	0.341	0.151	0.162	0.998	0.992	0.941	1.03	0.894	0.947	0.989	1.03	1.03	1.05	0.935	0.903	1.01	1.13	0.816
NCI-H1793	–	0.291	0.355	0.334	0.429	–	1.18	0.863	0.731	0.901	0.964	1.02	0.786	1.08	1.03	0.547	0.578	0.471	0.459	0.249
NCI-H596	0.696	0.882	0.742	0.558	0.755	0.97	1.16	1.08	0.853	0.948	0.96	0.96	1.07	1.15	0.86	0.942	1.04	1.09	1.13	0.712
PC-3 [JPC-3]	0.448	0.478	0.515	0.468	0.471	1.08	1.05	1.04	0.998	0.982	1.04	1	1	1.02	0.939	0.826	0.849	0.773	0.805	0.776
HCC-366	–	0.614	0.601	0.48	0.395	0.909	0.991	1.02	0.959	0.587	0.988	1.03	1.01	0.96	0.903	1.09	1.05	0.87	0.999	0.891
NCI-H1623	0.533	0.561	0.575	0.528	0.502	0.934	0.968	0.965	0.947	0.992	0.892	0.891	0.911	0.953	0.927	–	–	–	–	–
